The source of these data is paper PMC6099591, “(2E,5E)-2,5-Bis(3-hydroxy-4-methoxybenzylidene) cyclopentanone Exerts Anti-Melanogenesis and Anti-Wrinkle Activities in B16F10 Melanoma and Hs27 Fibroblast Cells” (Molecules : A Journal of Synthetic Chemistry and Natural …, 2018).

The subject of one series is p-p65 (Ser536). Nature of the series: Western blot, nuclear p-p65 (Ser536) in UV-induced Hs27 cells. The following applies: 1 and 10 µM, 24 h, then UV (50 mJ/cm2) 24 h; normalized to TFIIB. The class given is cell-based, human. The protocol:
(§1) Figure 6 Effects of BHCP on the expression levels of p-p65 (Ser536) in UV-induced Hs27 human fibroblast cells. Cells were preincubated with or without 1 and 10 μM BHCP for 24 h and were stimulated with UV (50 mJ/cm^2) for an additional 24 h. Nuclear protein levels of p-p65 (Ser536) were determined by Western blotting (a); After normalization to TFIIB, relative ratios were quantitated with CS analyzer software (b); Cytosol protein levels of p65 was determined by Western blotting (c); After normalization to β-actin, ratios were quantitated with CS analyzer software (d). Data are expressed as mean ± S.E.M. of three independent experiments. ^# p < 0.05 versus untreated control; * p < 0.05 and ** p < 0.01 versus […].
(§2) The Hs27 cells were washed with ice-cold PBS and harvested. […]
(§3) Lysate samples were boiled for 10 min in gel-loading buffer (125 mM Tris-HCl, 4% sodium dodecyl sulfate (SDS), 10% 2-mercaptoethanol, and 0.2% bromophenol blue; pH 6.8) at a volume ratio of 1:1. […] Antibody labeling was detected by enhanced chemiluminescence in accordance with the manufacturer’s instructions. Protein quantitation was performed using the Davinch-Chemi TM. […]
For orientation: In western blotting, separated proteins are transferred to a membrane and probed.

The next series deals with MMP-9. Nature of the series: Western blot, MMP-9 expression in UV-induced Hs27 cells. The settings on record: 1 and 10 µM, 24 h, then UV (50 mJ/cm2) 24 h. The class given is cell-based, human. How it is done: (§4) Figure 7 Effects of BHCP on the expression levels of MMP-1, MMP-9, MMP-12, and MMP-13 in UV-induced Hs27 human fibroblast cells. Cells were preincubated with or without 1 and 10 μM BHCP for 24 h and were stimulated with UV (50 mJ/cm^2) for an additional 24 h. Harvested cells were lysed and then examined for the expression levels of MMP-1, MMP-9, MMP-12, and MMP-13 by Western blotting (a); The protein levels of MMP-1 (b); MMP-9 (c); MMP-12 (d); and MMP-13 (e) were quantitated with CS analyzer software. MMP-1, MMP-9, MMP-12, and MMP-13 protein levels were normalized by β-actin. Data are expressed as mean ± S.E.M. of three independent experiments. ^# p < 0.05 versus untreated control; * p < 0.05 versus UV stimulation.
as §3, with “1:1. The total protein equivalents for each sample were separated by SDS-polyacrylamide gel electrophoresis (PAGE) using acrylamide gels as based on the procedure described by Laemmli and transferred to PVDF membranes at 80 V for 2 h using the wet-transfer system.” for “1:1.”

A further series concerns p-CREB. Nature of the series: Western blot, phosphorylation of CREB in α-MSH-stimulated B16F10 cells. The series is classed as cell-based, murine. The following applies: 1 and 10 µM, 24 h, then α-MSH (5 µM) 48 h. How it is done: (§5) Figure 5 Effects of BHCP on the expression levels of phosphorylation of CREB, MITF, and tyrosinase in α-MSH-stimulated B16F10 melanoma cells. Cells were preincubated with or without 1 and 10 μM BHCP for 24 h and were stimulated with α-MSH (5 μM) for an additional 48 h. Harvested cells were lysed and then examined for the expression levels of p-CREB, CREB, MITF, and tyrosinase by Western blotting (a); The protein levels of tyrosinase (b); MITF (c); and p-CREB (d) were quantitated with CS analyzer software. Tyrosinase, MITF, and p-CREB protein levels were normalized by β-actin. Data are expressed as mean ± S.E.M. of three independent experiments. ^# p < 0.05 versus untreated control; * p < 0.05 versus α-MSH stimulation.
as §3, with “1:1. The total protein equivalents for each sample were separated by SDS-polyacrylamide gel electrophoresis (PAGE) using acrylamide gels as based on the procedure described by Laemmli and transferred to PVDF membranes at 80 V for 2 h using the wet-transfer system.” for “1:1.”

Series [1] concerns B16F10 melanoma cells. Put plainly: Melanin content in α-MSH-induced B16F10 cells. The series is classed as cell-based, murine. The settings on record: 24 h pretreatment then α-MSH (5 µM) 48 h, α-MSH only control 186%. How it is done:
(§6) Figure 4 Inhibition of melanin contents (a) and cellular tyrosinase activity (b) of BHCP on B16F10 melanoma cells. […] Melanin content of the pellet was evaluated at 405 nm (a); intracellular tyrosinase activity was determined with L-DOPA as the substrate, and the absorbance of L-DOPA chrome was read at 492 nm (b). Data are expressed as mean ± S.E.M of three independent experiments. One-way ANOVA was used to determine the significances of differences: ^# p < 0.05 compared to the control group without α-MSH treatment. ** p < 0.01 and * p < 0.05 compared to the α-MSH-treated control group.
The effect of BHCP on α-MSH-induced melanogenesis in B16F10 cells was based on a previously used method with slight modifications. Briefly, B16F10 cells (5 × 10^4 cells/well) in 6-well plates were allowed to grow to 70–80% confluence. […] After treatment, the cells were washed twice with ice-cold PBS, dissolved in 90 µL 1 M NaOH solution including DMSO (5%) at 60 °C for 1 h, and the absorbance was measured at 405 nm with a microplate spectrophotometer (TECAN, Salzburg, Austria). To measure the amount of melanin in the experiment, the rate of inhibition in the treatment groups were calculated from the absorbance of the known concentrations of synthetic melanin, which were corrected to the total amount of protein that was present in the supernatant of the cell lysates. The absorbance of untreated cells was measured in triplicate.

For a further series, the system named is tyrosinase. Put plainly: Western blot, tyrosinase protein level in α-MSH-stimulated B16F10 cells. The series is classed as cell-based, murine. The settings on record: 1 and 10 µM, 24 h, then α-MSH (5 µM) 48 h; normalized by β-actin. The protocol: as §5
as §3, with “1:1. The total protein equivalents for each sample were separated by SDS-polyacrylamide gel electrophoresis (PAGE) using acrylamide gels as based on the procedure described by Laemmli and transferred to PVDF membranes at 80 V for 2 h using the wet-transfer system.” for “1:1.”

The test system of a further series is p65. Put plainly: Western blot, cytosol p65 in UV-induced Hs27 cells. The series is classed as cell-based, human. The following applies: 1 and 10 µM, 24 h, then UV (50 mJ/cm2) 24 h; normalized to β-actin. The protocol: as §1, §2, §3
A further series deals with MITF. Put plainly: Western blot, MITF protein level in α-MSH-stimulated B16F10 cells. The series is classed as cell-based, murine. The following applies: 1 and 10 µM, 24 h, then α-MSH (5 µM) 48 h; normalized by β-actin. The protocol:
as §5
as §3, with “1:1. The total protein equivalents for each sample were separated by SDS-polyacrylamide gel electrophoresis (PAGE) using acrylamide gels as based on the procedure described by Laemmli and transferred to PVDF membranes at 80 V for 2 h using the wet-transfer system.” for “1:1.”

Another series relates to MMP-1. Put plainly: Western blot, MMP-1 expression in UV-induced Hs27 cells. The series is classed as cell-based, human. The following applies: 1 and 10 µM, 24 h, then UV (50 mJ/cm2) 24 h. The protocol: as §4
as §3, with “1:1. The total protein equivalents for each sample were separated by SDS-polyacrylamide gel electrophoresis (PAGE) using acrylamide gels as based on the procedure described by Laemmli and transferred to PVDF membranes at 80 V for 2 h using the wet-transfer system.” for “1:1.”

Another series concerns Hs27 fibroblast cells. Nature of the series: Cell viability, EZ-Cytox assay, Hs27. The class given is cell-based, human. The settings on record: up to 10 µM, 48 h. How it is done: (§7) Figure 3 Cell viability of BHCP on B16F10 melanoma (a) and Hs27 fibroblast cells (b). Cells were treated with various concentrations (0–10 μM) of BHCP for 24 h and 48 h, respectively, and cell viability was measured by EZ-Cytox assay.
(§8) The viability of cells was assessed using the EZ-Cytox kit assay. In brief, B16F10 cells and Hs27 fibroblasts were seeded into a 96-well plate at a density of 1 × 10^4 cells/well and incubated at 37 °C for 24 h. The cells were fed fresh, serum-free DMEM that contained different concentrations (0, 1, 2, 5, and 10 µM) of BHCP, and incubated for 24 and 48 h. Subsequently, 10 μL of EZ-Cytox solution was loaded into each well and the cells were incubated for 2–4 h. The absorbance measurement of cells in the absence of any treatment was regarded as 100% cell survival. Each treatment was performed in triplicate and each experiment was repeated three times.

Series [2] has as its system B16F10 melanoma cells. Put plainly: Cell viability, EZ-Cytox assay, B16F10. The series is classed as cell-based, murine. The following applies: up to 10 µM, 48 h. How it is done: as §7, §8
In series [3] the test system is cellular tyrosinase in B16F10 melanoma cells. Put plainly: Cellular tyrosinase activity assay in α-MSH-induced B16F10 cells. The class given is cell-based, murine. The following applies: 24 h pretreatment then α-MSH (5 µM) 48 h, α-MSH only control 181%. The protocol: as §6
Cellular tyrosinase activity assay was performed by measuring the rate of oxidation of L-DOPA [35]. B16F10 cells at a density of 5 × 10^4/cells were placed in 6-well dishes and incubated overnight. […] The cells were washed with PBS and lysed in a solution containing 100 µL of 50 mM phosphate buffer (pH 6.5), 0.1 mM phenylmethylsulfonylfluoride (PMSF), and 1% Triton X-100. Then, the cells were placed in a deep freezer machine (−80 °C) for 30 min. After defrosting the cells, the cellular extracts were purified by centrifugation at 12,000 rpm for 30 min at 4 °C. A total of 80 µL the supernatant and 20 µL of L-DOPA (2 mg/mL) were added to a 96-well plate, and the absorbance at a wavelength of 492 nm was measured every 10 min during 1 h at 37 °C with an ELISA plate reader (TECAN, Salzburg, Austria).

A further series has as its system MMP-13. Nature of the series: Western blot, MMP-13 expression in UV-induced Hs27 cells. The series is classed as cell-based, human. The settings on record: 1 and 10 µM, 24 h, then UV (50 mJ/cm2) 24 h. The protocol: as §4
as §3, with “1:1. The total protein equivalents for each sample were separated by SDS-polyacrylamide gel electrophoresis (PAGE) using acrylamide gels as based on the procedure described by Laemmli and transferred to PVDF membranes at 80 V for 2 h using the wet-transfer system.” for “1:1.”

The next series has as its system MMP-12. Nature of the series: Western blot, MMP-12 expression in UV-induced Hs27 cells. The series is classed as cell-based, human. The settings on record: 1 and 10 µM, 24 h, then UV (50 mJ/cm2) 24 h. How it is done:
as §4
as §3, with “1:1. The total protein equivalents for each sample were separated by SDS-polyacrylamide gel electrophoresis (PAGE) using acrylamide gels as based on the procedure described by Laemmli and transferred to PVDF membranes at 80 V for 2 h using the wet-transfer system.” for “1:1.”

The target in series [4] is Mushroom tyrosinase (EC 1.14.18.1) (Agaricus bisporus, UniProt C7FF04). Put plainly: Kinetic analysis of tyrosinase inhibition (Lineweaver-Burk and Dixon plots). The series is classed as biochemical. The following applies: Lineweaver-Burk plot. The text has this:
Furthermore, the mechanism responsible for tyrosinase inhibition by BHCP was investigated by enzyme kinetic analysis in the present study (Table 1 and Figure 2). Lineweaver–Burk plots were drawn using the data obtained from the kinetic studies, and the inhibition constant (Ki) was obtained from the Dixon plots. The Lineweaver–Burk double reciprocal plots indicated competitive-type inhibition. […] Moreover, intercepts on the x-axis of Dixon plots are commonly used to determine the types of enzyme inhibition constants (Ki) for an enzyme–inhibitor complex, where the value of the x-axis indicates the value of −Ki.
Figure 2 Lineweaver–Burk (a,c) and Dixon (b,d) plots for tyrosinase enzyme inhibition by BHCP. […]
To determine the kinetic mechanisms, two kinetic methods (Lineweaver–Burk and Dixon plots) were complementarily used. For the Lineweaver–Burk double reciprocal plots (a plot of 1/enzyme velocity (1/V) versus 1/substrate concentration (1/[S])), the inhibition type was determined using various concentrations of L-tyrosine (1, 2, and 4 mM) and L-DOPA (0.5, 1, and 2 mM) as substrates in the presence of different concentrations of BHCP. […]

Mushroom tyrosinase (EC 1.14.18.1), sequence (G1K3P4 entry or part of it): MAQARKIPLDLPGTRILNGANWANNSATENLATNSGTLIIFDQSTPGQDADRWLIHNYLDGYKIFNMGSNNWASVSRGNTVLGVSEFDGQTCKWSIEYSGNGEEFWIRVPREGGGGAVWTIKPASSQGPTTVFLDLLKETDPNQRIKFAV
Mushroom tyrosinase (EC 1.14.18.1), sequence (C7FF04 1-392): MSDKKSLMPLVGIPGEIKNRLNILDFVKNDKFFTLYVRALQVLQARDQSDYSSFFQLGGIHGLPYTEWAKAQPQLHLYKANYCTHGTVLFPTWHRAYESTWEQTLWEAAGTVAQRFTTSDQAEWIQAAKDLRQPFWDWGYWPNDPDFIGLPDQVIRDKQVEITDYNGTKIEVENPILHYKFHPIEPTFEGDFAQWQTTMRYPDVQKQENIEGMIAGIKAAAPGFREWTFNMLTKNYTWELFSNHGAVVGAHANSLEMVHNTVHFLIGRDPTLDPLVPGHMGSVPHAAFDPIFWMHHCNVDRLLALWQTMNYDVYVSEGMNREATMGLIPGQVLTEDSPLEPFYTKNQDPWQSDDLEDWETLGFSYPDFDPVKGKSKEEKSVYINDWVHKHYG

As to `COc1ccc(/C=C2\CC/C(=C\c3ccc(OC)c(O)c3)C2=O)cc1O` [BHCP, (2E,5E)-2,5-bis(3-hydroxy-4-methoxybenzylidene)cyclopentanone], the “Nucleus p-p65 (Ser536) protein level” value in the series with p-p65 (Ser536) is reported as “decreased”. The MMP-9 expression entry with MMP-9 is recorded as “decreased expression in a dose-dependent manner”. In addition, in the series with p-CREB, the “Phosphorylation of CREB” value is “significantly suppressed”. The Melanin content in the series on B16F10 melanoma cells [1] (1 µM) is listed as 113%; in the series on B16F10 melanoma cells [1] (5 µM), 106%; with B16F10 melanoma cells [1] (10 µM) it was 102%. In the series with tyrosinase, the Tyrosinase protein level result is recorded as “decreased these protein levels”. Besides, the “Total p65 in the cytoplasm” value with p65 is “restored”. Further, the MITF protein level result in the series on MITF is given as “decreased these protein levels”. In addition, the MMP-1 expression entry with MMP-1 was “decreased expression in a dose-dependent manner”. In the series with Hs27 fibroblast cells, the “Cell viability (survival) of Hs27 cells” value is “did not reduce the survival”. For the same molecule, the “Cell viability (survival) of B16F10 cells” value in the series with B16F10 melanoma cells [2] is “did not reduce the survival”. Besides, the Cellular tyrosinase activity turned out to be 120% in [3] (1 µM), 116% in series [3] (5 µM) and 105% in [3] (10 µM). In addition, in the series with MMP-13, the MMP-13 expression entry is “decreased expression in a dose-dependent manner”. Besides, in the series on MMP-12, the MMP-12 expression entry is recorded as “decreased expression in a dose-dependent manner”. In addition, the “Inhibition Type (L-DOPA)” value in series [4] (substrate L-DOPA) was “competitive inhibitor”. Further, in series [4] (substrate L-tyrosine), the “Inhibition Type (L-Tyrosine)” value is listed as “competitive inhibitor”.
As for `O=c1cc(CO)occ1O` [Kojic acid, reference compound], the Cellular tyrosinase activity in series [3] worked out at 131%.
